# Laboratory results as given in US12077503B2, “Substituted cyclic amides and their use as herbicides” (FMC CORPORATION, priority 2015, dated 2024).
# Columns and labels:
# Format in all cases: in vivo
# rice (Oryra sativa) = test: Test B flooded paddy test; settings: Flood, 250 g ai/ha; for Plant response rating, Rice: 0 to 100 scale where 0 is no effect and 100 is complete control, 13 to 15 d
# Method in brief: (§1)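 Percent control, visually estimated after 13–15 d in the greenhouse on a 0–100 basis, compares treated pots with untreated ones; compound was put into paddy water 3 cm above the soil when plants had two leaves.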
# [1] = test system: barnyardgrass (Echinochloa crus-galli); test: Test B flooded paddy test; settings: Flood, 250 g ai/ha; for Plant response rating, Barnyardgrass: 0 to 100 scale where 0 is no effect and 100 is complete control, 13 to 15 d
# Method in brief: as §1
# [2] = test system: sedge, umbrella (small-flower umbrella sedge, Cyperus difformis); test: Test B flooded paddy test; settings: Flood, 250 g ai/ha, 0 to 100 scale where 0 is no effect and 100 is complete control; for Plant response rating, Sedge, Umbrella: 13 to 15 d
# Method in brief: as §1
# [3] = test system: ducksalad (Heteranthera limosa); test: Test B flooded paddy test; settings: Flood, 250 g ai/ha; for Plant response rating, Ducksalad: 0 to 100 scale where 0 is no effect and 100 is complete control, 13 to 15 d
# Method in brief: as §1
# Kochia (Kochia scoparia) [4] = test: Test A preemergence
# Method in brief: (§2)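 Treatment is preemergence as a directed soil spray after planting, or postemergence at the one- to two-leaf stage, with test chemical in a non-phytotoxic solvent mixture plus surfactant. Plants stay in the greenhouse about 10 d before visual injury scoring on a 0 to 100 scale versus untreated controls.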
# [5] = test system: barnyardgrass (Echinochloa crus-galli); test: Test A preemergence
# Method in brief: as §2
# [6] = test system: ryegrass, Italian (Italian ryegrass, Lolium multiflorum); test: Test A preemergence
# Method in brief: as §2
# [7] = test system: ragweed (common ragweed, Ambrosia elatior); test: Test A preemergence
# Method in brief: as §2
# [8] = test system: giant foxtail (Setaria faberii); test: Test A preemergence
# Method in brief: as §2
# [9] = test system: pigweed (Amaranthus retroflexus); test: Test A preemergence
# [10] = test system: Galium (catchweed bedstraw, Galium aparine); test: Test A postemergence
# Method in brief: as §2
# corn (Zea mays) = test: Test A postemergence
# Method in brief: as §2
# Kochia (Kochia scoparia) [11] = test: Test A postemergence
# Method in brief: as §2
# [12] = test system: barnyardgrass (Echinochloa crus-galli); test: Test A postemergence
# Method in brief: as §2
# [13] = test system: ryegrass, Italian (Italian ryegrass, Lolium multiflorum); test: Test A postemergence
# Method in brief: as §2
# [14] = test system: ragweed (common ragweed, Ambrosia elatior); test: Test A postemergence
# Method in brief: as §2
# [15] = test system: wheat (Triticum aestivum); test: Test A postemergence
# Method in brief: as §2
# [16] = test system: blackgrass (Alopecurus myosuroides); test: Test A postemergence
# Method in brief: as §2
# [17] = test system: giant foxtail (Setaria faberii); test: Test A postemergence
# Method in brief: as §2
# [18] = test system: pigweed (Amaranthus retroflexus); test: Test A postemergence
# Method in brief: as §2
# [19] = 125 g ai/ha, Preemergence, visual injury after approximately 10 d, 0 to 100 scale where 0 is no effect and 100 is complete control
# [20] = 500 g ai/ha, preemergence, 0 to 100 scale, 0 = no effect, 100 = complete control
# [21] = 125 g ai/ha, postemergence, visual rating after approx. 10 d, 0 to 100 scale (0 no effect, 100 complete control)
# [22] = 500 g ai/ha, postemergence, visual injury, 0 to 100 scale (0 no effect, 100 complete control), approx. 10 d
# [23] = scale of 0 to 100 where 0 is no effect and 100 is complete control
# [24] = 125 g ai/ha, Preemergence, visual injury rating after approximately 10 d
# [25] = 500 g ai/ha, preemergence, visual injury rating about 10 d after treatment, 0 to 100 scale (0 no effect, 100 complete control)
# [26] = 125 g ai/ha, Postemergence, visual injury after approximately 10 d, 0 to 100 scale where 0 is no effect and 100 is complete control
# [27] = Preemergence, 500 g ai/ha, visual injury approx. 10 d
# [28] = Postemergence, 500 g ai/ha, 0 to 100 scale where 0 is no effect and 100 is complete control
# [29] = 125 g ai/ha, postemergence, visual injury rating on 0 to 100 scale (0 no effect, 100 complete control), approx. 10 d
structure (smiles),measurement,setting,value
O=C1NCC(c2csc(Br)c2)C1C(=O)Nc1ccccc1F (stereo not shown) [Compound 648],"Plant response rating, Rice",rice (Oryra sativa),20
same,"Plant response rating, Barnyardgrass",[1],20
same,"Plant response rating, Sedge, Umbrella",[2],0
same,"Plant response rating, Ducksalad",[3],100
same,"Plant response rating, Kochia",Kochia (Kochia scoparia) [4]; [19],0
same,"Plant response rating, Kochia",Kochia (Kochia scoparia) [4]; [20],50
same,"Plant response rating, Barnyardgrass",[5]; [19],70
same,"Plant response rating, Barnyardgrass",[5]; [20],90
same,"Plant response rating, Ryegrass, Italian",[6]; [19],30
same,"Plant response rating, Ryegrass, Italian",[6]; [20],40
same,"Plant response rating, Ragweed",[7]; [19],0
same,"Plant response rating, Ragweed",[7]; [20],20
same,"Plant response rating, Foxtail, Giant",[8]; [19],60
same,"Plant response rating, Foxtail, Giant",[8]; [20],80
same,"Plant response rating, Pigweed",[9]; [19],0
same,"Plant response rating, Pigweed",[9]; [20],40
same,"Plant response rating, Galium",[10]; [21],20
same,"Plant response rating, Galium",[10]; [22],60
same,"Plant response rating, Corn",corn (Zea mays); [21],0
same,"Plant response rating, Corn",corn (Zea mays); [22],0
same,"Plant response rating, Kochia",Kochia (Kochia scoparia) [11]; [21],0
same,"Plant response rating, Kochia",Kochia (Kochia scoparia) [11]; [22],0
same,"Plant response rating, Barnyardgrass",[12]; [21],70
same,"Plant response rating, Barnyardgrass",[12]; [22],80
same,"Plant response rating, Ryegrass, Italian",[13]; [21],30
same,"Plant response rating, Ryegrass, Italian",[13]; [22],50
same,"Plant response rating, Ragweed",[14]; [21],0
same,"Plant response rating, Ragweed",[14]; [22],30
same,"Plant response rating, Wheat",[15]; [21],0
same,"Plant response rating, Wheat",[15]; [22],0
same,"Plant response rating, Blackgrass",[16]; [21],30
same,"Plant response rating, Blackgrass",[16]; [22],50
same,"Plant response rating, Foxtail, Giant",[17]; [21],10
same,"Plant response rating, Foxtail, Giant",[17]; [22],50
same,"Plant response rating, Pigweed",[18]; [21],30
same,"Plant response rating, Pigweed",[18]; [22],50
Cc1c(F)cccc1NC(=O)[C@H]1C(=O)NC[C@@H]1c1ccc2c(c1)OCO2 (stereo in doubt) [Compound 989],Rice plant response rating,rice (Oryra sativa); [23],0
same,Barnyardgrass plant response rating,[1]; [23],15
same,"Sedge, Umbrella plant response rating",[2],0
same,Ducksalad plant response rating,[3]; [23],100
same,"Kochia plant response rating (0 to 100 scale, 0 is no effect, 100 is complete control)",Kochia (Kochia scoparia) [4]; [24],0
same,Kochia plant response rating,Kochia (Kochia scoparia) [4]; [25],90
same,"Barnyardgrass plant response rating (0 to 100 scale, 0 is no effect, 100 is complete control)",[5]; [24],70
same,Barnyardgrass plant response rating,[5]; [25],90
same,"Ryegrass, Italian plant response rating (0 to 100 scale, 0 is no effect, 100 is complete control)",[6]; [24],0
same,"Ryegrass, Italian plant response rating",[6]; [25],0
same,"Ragweed plant response rating (0 to 100 scale, 0 is no effect, 100 is complete control)",[7]; [24],0
same,Ragweed plant response rating,[7]; [25],40
same,"Foxtail, Giant plant response rating (0 to 100 scale, 0 is no effect, 100 is complete control)",[8]; [24],70
same,"Foxtail, Giant plant response rating",[8]; [25],90
same,"Pigweed plant response rating (0 to 100 scale, 0 is no effect, 100 is complete control)",[9]; [24],0
same,Pigweed plant response rating,[9]; [25],0
same,"Plant response rating, Galium",[10]; [26],20
same,"Plant response rating, Corn",corn (Zea mays); [26],0
same,"Plant response rating, Kochia",Kochia (Kochia scoparia) [11]; [26],0
same,"Plant response rating, Barnyardgrass",[12]; [26],80
same,"Plant response rating, Ryegrass, Italian",[13]; [26],0
same,"Plant response rating, Ragweed",[14]; [26],0
same,"Plant response rating, Wheat",[15]; [26],0
same,"Plant response rating, Blackgrass",[16]; [26],0
same,"Plant response rating, Foxtail, Giant",[17]; [26],50
same,"Plant response rating, Pigweed",[18]; [26],0
COc1c(F)ccc(NC(=O)C2C(=O)NCC2c2cccc(OC(F)(F)C(F)F)c2)c1F (racemic) [Compound 540],"Plant response rating, Rice",rice (Oryra sativa),0
same,"Plant response rating, Barnyardgrass",[1],55
same,"Plant response rating, Sedge, Umbrella",[2],0
same,"Plant response rating, Ducksalad",[3],75
same,"Plant response rating, Kochia",Kochia (Kochia scoparia) [4]; [19],0
same,"Kochia plant response rating (0 to 100 scale, 0 is no effect, 100 is complete control)",Kochia (Kochia scoparia) [4]; [27],20
same,"Plant response rating, Barnyardgrass",[5]; [19],80
same,"Barnyardgrass plant response rating (0 to 100 scale, 0 is no effect, 100 is complete control)",[5]; [27],90
same,"Plant response rating, Ryegrass, Italian",[6]; [19],0
same,"Ryegrass, Italian plant response rating (0 to 100 scale, 0 is no effect, 100 is complete control)",[6]; [27],40
same,"Plant response rating, Ragweed",[7]; [19],0
same,"Plant response rating, Foxtail, Giant",[8]; [19],90
same,"Foxtail, Giant plant response rating (0 to 100 scale, 0 is no effect, 100 is complete control)",[8]; [27],90
same,"Plant response rating, Pigweed",[9]; [19],0
same,"Pigweed plant response rating (0 to 100 scale, 0 is no effect, 100 is complete control)",[9]; [27],60
same,"Plant response rating, Galium",[10]; [21],60
same,"Plant response rating, Galium",[10]; [28],70
same,"Plant response rating, Corn",corn (Zea mays); [21],30
same,"Plant response rating, Corn",corn (Zea mays); [28],60
same,"Plant response rating, Kochia",Kochia (Kochia scoparia) [11]; [21],0
same,"Plant response rating, Kochia",Kochia (Kochia scoparia) [11]; [28],0
same,Barnyardgrass plant response rating,[12]; [29],60
same,"Plant response rating, Barnyardgrass",[12]; [28],70
same,"Plant response rating, Ryegrass, Italian",[13]; [21],0
same,"Plant response rating, Ryegrass, Italian",[13]; [28],30
same,"Plant response rating, Ragweed",[14]; [21],0
same,"Plant response rating, Ragweed",[14]; [28],20
same,"Plant response rating, Wheat",[15]; [21],0
same,"Plant response rating, Wheat",[15]; [28],60
same,Blackgrass plant response rating,[16]; [29],50
same,"Plant response rating, Blackgrass",[16]; [28],60
same,"Plant response rating, Foxtail, Giant",[17]; [21],70
same,"Plant response rating, Foxtail, Giant",[17]; [28],90
same,"Plant response rating, Pigweed",[18]; [21],0
same,"Plant response rating, Pigweed",[18]; [28],0
